IC50 and inhibition data for 19 compounds are collected here from US9695154B2, “Heteroaryl inhibitors of sumo activating enzyme” (MILLENNIUM PHARMACEUTICALS, INC., priority 2013, dated 2017).

This test deals with T1, recombinant human SAE enzyme (Homo sapiens, UniProt Q9UBT2).
T1 sequence (Q9UBT2 1-640): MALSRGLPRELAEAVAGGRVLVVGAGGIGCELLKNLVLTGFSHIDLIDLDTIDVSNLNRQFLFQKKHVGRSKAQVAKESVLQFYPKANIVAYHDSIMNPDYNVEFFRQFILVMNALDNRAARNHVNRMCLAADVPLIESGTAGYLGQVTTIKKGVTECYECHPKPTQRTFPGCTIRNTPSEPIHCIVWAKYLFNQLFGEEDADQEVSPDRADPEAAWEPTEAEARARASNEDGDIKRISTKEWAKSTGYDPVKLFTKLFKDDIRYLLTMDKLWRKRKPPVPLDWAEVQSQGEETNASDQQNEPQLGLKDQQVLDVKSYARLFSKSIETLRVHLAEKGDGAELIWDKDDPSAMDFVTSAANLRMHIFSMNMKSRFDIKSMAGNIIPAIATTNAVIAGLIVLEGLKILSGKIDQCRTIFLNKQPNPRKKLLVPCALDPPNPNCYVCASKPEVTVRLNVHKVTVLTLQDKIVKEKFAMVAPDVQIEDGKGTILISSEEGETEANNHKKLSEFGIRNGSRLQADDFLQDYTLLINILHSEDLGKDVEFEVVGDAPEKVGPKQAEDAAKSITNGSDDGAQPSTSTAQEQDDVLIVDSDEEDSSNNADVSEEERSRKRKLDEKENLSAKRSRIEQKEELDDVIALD
T1 sequence (Q9UBE0 1-346 partner): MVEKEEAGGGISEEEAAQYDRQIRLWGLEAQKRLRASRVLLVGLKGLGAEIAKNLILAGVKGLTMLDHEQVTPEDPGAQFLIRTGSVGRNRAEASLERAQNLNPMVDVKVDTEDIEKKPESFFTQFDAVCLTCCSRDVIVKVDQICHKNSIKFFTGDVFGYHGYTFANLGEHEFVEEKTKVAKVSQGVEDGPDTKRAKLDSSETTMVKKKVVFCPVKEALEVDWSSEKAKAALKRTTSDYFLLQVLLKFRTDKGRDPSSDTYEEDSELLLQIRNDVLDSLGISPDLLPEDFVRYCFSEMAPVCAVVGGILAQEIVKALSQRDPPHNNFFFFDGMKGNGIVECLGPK
Put plainly: SAE HTRF Enzyme Assay. Format: biochemical. As to conditions: for IC50: class symbols A-C; for inhibition at 0.111 µM: compound concentration 0.111 μM, read-out: Percent Inhibition. A digest of the protocol:
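SAE 0.11 nM; ATP 0.5 μM; Sumo-Flag 0.125 μM; Ubc9-GST 0.01 μM; 250 μM GSH, 5 mM MgCl2, pH 7.5. 105 min, 24° C. EDTA/KF stop plus Eu/APC antibodies, 2 h, TR-FRET. % inhibition or IC50.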
In general terms: Time-resolved FRET reads energy transfer from a long-lived donor to a nearby acceptor.

Where only a bound is given, the exact number is not on record here.

The IC50 is the concentration at which inhibition is half-maximal. One may read the inhibition as the relative decrease from the control value, in per cent. Consider `NS(=O)(=O)OC[C@H]1C[C@@H](Nc2ncncc2C(=O)c2cc(F)n(Cc3cccc(Br)c3)c2)[C@@H](F)[C@@H]1O` [Compound I-44, {(1R,2R,3R,4R)-4-[(5-{[1-(3-Bromobenzyl)-5-fluoro-1H-pyrrol-3-yl]carbonyl}pyrimidin-4-yl)amino]-3-fluoro-2-hydroxycyclopentyl}methyl sulfamate], for which the IC50 was less than 10 nM and the inhibition at 0.111 µM was 99%.

On to `NS(=O)(=O)OC[C@H]1C[C@@H](Nc2ncncc2C(=O)c2ccn(Cc3cccc(Cl)n3)c2)[C@@H](F)[C@@H]1O` [Compound I-8, [(1R,2R,3R,4R)-4-{[5-({1-[(6-Chloropyridin-2-yl)methyl]-1H-pyrrol-3-yl}carbonyl)pyrimidin-4-yl]amino}-3-fluoro-2-hydroxycyclopentyl]methyl sulfamate], for which the 50% inhibitory concentration (IC50) was less than 10 nM and the inhibition at 0.111 µM was found to be 99%.

Turning to `NS(=O)(=O)OC[C@H]1C[C@@H](Nc2ncncc2C(=O)c2ccn(Cc3ccc(C(F)(F)F)c(F)c3)n2)[C@H](O)[C@@H]1O` [Compound I-46, [(1R,2R,3S,4R)-4-{[5-({1-[3-fluoro-4-(trifluoromethyl)benzyl]-1H-pyrazol-3-yl}carbonyl)pyrimidin-4-yl]amino}-2,3-dihydroxycyclopentyl]methyl sulfamate], the IC50 is less than 10 nM and the inhibition at 0.111 µM amounted to 96%.

Regarding `NS(=O)(=O)OC[C@H]1C[C@@H](Nc2ncncc2C(=O)c2ccn(Cc3ccc(Cl)cc3F)n2)C[C@@H]1O` [Compound I-191, {(1R,2S,4R)-4-[(5-{[1-(4-chloro-2-fluorobenzyl)-1H-pyrazol-3-yl]carbonyl}pyrimidin-4-yl)amino]-2-hydroxycyclopentyl}methyl sulfamate], the concentration for half-maximal inhibition (IC50) is less than 10 nM and the inhibition at 0.111 µM amounted to 92%.

As to `NS(=O)(=O)OC[C@H]1C[C@@H](Nc2ncncc2C(=O)c2ccn(Cc3ccc(F)c(C(F)(F)F)c3)c2)C[C@@H]1O` [Compound I-21, [(1R,2S,4R)-4-{[5-({1-[4-fluoro-3-(trifluoromethyl)benzyl]-1H-pyrrol-3-yl}carbonyl)pyrimidin-4-yl]amino}-2-hydroxycyclopentyl]methyl sulfamate], the concentration for half-maximal inhibition (IC50) is less than 10 nM and the inhibition at 0.111 µM worked out at 99%.

Turning to `NS(=O)(=O)OC[C@H]1C[C@@H](Nc2ncncc2C(=O)c2cc(Cl)n(Cc3ccc(Cl)o3)c2)[C@@H](F)[C@@H]1O` [Compound I-254, [(1R,2R,3R,4R)-4-{[5-({5-chloro-1-[(5-chloro-2-furyl)methyl]-1H-pyrrol-3-yl}carbonyl)pyrimidin-4-yl]amino}-3-fluoro-2-hydroxycyclopentyl]methyl sulfamate], the 50% inhibitory concentration (IC50) is less than 10 nM and the inhibition at 0.111 µM came to 99%.

On to `NS(=O)(=O)OC[C@H]1C[C@@H](Nc2ncncc2C(=O)c2ccn(Cc3ccc(Cl)c(Br)c3)n2)[C@@H](F)[C@@H]1O` [Compound I-127, {(1R,2R,3R,4R)-4-[(5-{[1-(3-bromo-4-chlorobenzyl)-1H-pyrazol-3-yl]carbonyl}pyrimidin-4-yl)amino]-3-fluoro-2-hydroxycyclopentyl}methyl sulfamate], for which the concentration for half-maximal inhibition (IC50) was less than 10 nM and the inhibition at 0.111 µM was determined as 99%.

As for `NS(=O)(=O)OC[C@H]1C[C@@H](Nc2ncncc2C(=O)c2ccn(Cc3cc(F)cc(C(F)(F)F)c3)c2)C[C@@H]1O` [Compound I-213, [(1R,2S,4R)-4-{[5-({1-[3-fluoro-5-(trifluoromethyl)benzyl]-1H-pyrrol-3-yl}carbonyl)pyrimidin-4-yl]amino}-2-hydroxycyclopentyl]methyl sulfamate], the IC50 is less than 10 nM and the inhibition at 0.111 µM worked out at 97%.

For the compound `NS(=O)(=O)OC[C@H]1C[C@@H](Nc2ncncc2C(=O)c2ccn(Cc3ccc(Cl)c(Br)c3)n2)C[C@@H]1O` [Compound I-179, {(1R,2S,4R)-4-[(5-{[1-(3-bromo-4-chlorobenzyl)-1H-pyrazol-3-yl]carbonyl}pyrimidin-4-yl)amino]-2-hydroxycyclopentyl}methyl sulfamate], the IC50 was less than 10 nM and the inhibition at 0.111 µM is greater than 99%.

As for `Cc1cc(C(=O)c2cncnc2N[C@@H]2C[C@H](COS(N)(=O)=O)[C@@H](O)C2)nn1Cc1cccc(Br)c1` [Compound I-309, {(1R,2S,4R)-4-[(5-{[1-(3-Bromobenzyl)-5-methyl-1H-pyrazol-3-yl]carbonyl}pyrimidin-4-yl)amino]-2-hydroxycyclopentyl}methyl sulfamate], the IC50 is less than 10 nM and the inhibition at 0.111 µM is 100%.

With `NS(=O)(=O)OC[C@H]1C[C@@H](Nc2ncncc2C(=O)c2ccn(Cc3cc(C(F)(F)F)ccc3Cl)n2)C[C@@H]1O` [Compound I-50, [(1R,2S,4R)-4-{[5-({1-[2-chloro-5-(trifluoromethyl)benzyl]-1H-pyrazol-3-yl}carbonyl)pyrimidin-4-yl]amino}-2-hydroxycyclopentyl]methyl sulfamate], the IC50 is less than 10 nM and the inhibition at 0.111 µM is 99%.

Regarding `NS(=O)(=O)OC[C@H]1C[C@@H](Nc2ncncc2C(=O)c2ccn(Cc3cccc(I)c3)c2)C[C@@H]1O` [Compound I-68, {(1R,2S,4R)-2-hydroxy-4-[(5-{[1-(3-iodobenzyl)-1H-pyrrol-3-yl]carbonyl}pyrimidin-4-yl)amino]cyclopentyl}methyl sulfamate], the IC50 is less than 10 nM and the inhibition at 0.111 µM came to 99%.

Turning to `NS(=O)(=O)OC[C@H]1C[C@@H](Nc2ncncc2C(=O)c2ccn(Cc3cccc(Br)c3)c2)C[C@@H]1O` [Compound I-333, {(1R,2S,4R)-4-[(5-{[1-(3-bromobenzyl)-1H-pyrrol-3-yl]carbonyl}pyrimidin-4-yl)amino]-2-hydroxycyclopentyl}methyl sulfamate], the IC50 is less than 10 nM and the inhibition at 0.111 µM was 99%.

`Cc1cc(C(=O)c2cncnc2N[C@@H]2C[C@H](COS(N)(=O)=O)[C@@H](O)C2)nn1Cc1ccc(Cl)o1` [Compound I-101, [(1R,2S,4R)-4-{[5-({1-[(5-chloro-2-furyl)methyl]-5-methyl-1H-pyrazol-3-yl}carbonyl)pyrimidin-4-yl]amino}-2-hydroxycyclopentyl]methyl sulfamate]: the concentration for half-maximal inhibition (IC50) was less than 10 nM and the inhibition at 0.111 µM turned out to be 100%.

Take `NS(=O)(=O)OC[C@H]1C[C@@H](Nc2ncncc2C(=O)c2ccn(Cc3ccc(Cl)c(OC(F)(F)F)c3)n2)[C@H](O)[C@@H]1O` [Compound I-100, [(1R,2R,3S,4R)-4-{[5-({1-[4-chloro-3-(trifluoromethoxy)benzyl]-1H-pyrazol-3-yl}carbonyl)pyrimidin-4-yl]amino}-2,3-dihydroxycyclopentyl]methyl sulfamate]: the IC50 is less than 10 nM and the inhibition at 0.111 µM was found to be 98%.

For `COc1cccc(Cn2ccc(C(=O)c3cncnc3N[C@@H]3C[C@H](COS(N)(=O)=O)[C@@H](O)[C@@H]3F)c2)n1` [Compound I-188, [(1R,2R,3R,4R)-3-fluoro-2-hydroxy-4-{[5-({1-[(6-methoxypyridin-2-yl)methyl]-1H-pyrrol-3-yl}carbonyl)pyrimidin-4-yl]amino}cyclopentyl]methyl sulfamate], the IC50 was less than 10 nM and the inhibition at 0.111 µM turned out to be 98%.

Turning to `CC(C)(O)c1cccc(Cn2ccc(C(=O)c3cncnc3N[C@@H]3C[C@H](COS(N)(=O)=O)[C@@H](O)C3)n2)n1` [Compound I-109, [(1R,2S,4R)-2-hydroxy-4-({5-[(1-{[6-(2-hydroxypropan-2-yl)pyridin-2-yl]methyl}-1H-pyrazol-3-yl)carbonyl]pyrimidin-4-yl}amino)cyclopentyl]methyl sulfamate], the 50% inhibitory concentration (IC50) was 10 to 100 nM and the inhibition at 0.111 µM is 76%.

Regarding `NS(=O)(=O)OC[C@H]1C[C@@H](Nc2ncncc2C(=O)c2ccn(Cc3cccc(Oc4ccc(F)cc4)c3)n2)[C@H](O)[C@@H]1O` [Compound I-229, [(1R,2R,3S,4R)-4-{[5-({1-[3-(4-fluorophenoxy)benzyl]-1H-pyrazol-3-yl}carbonyl)pyrimidin-4-yl]amino}-2,3-dihydroxycyclopentyl]methyl sulfamate], the IC50 lay within 10 to 100 nM and the inhibition at 0.111 µM turned out to be 88%.

For the compound `NS(=O)(=O)OC[C@H]1C[C@@H](Nc2ncncc2C(=O)c2ccn(Cc3cc(F)ccc3F)n2)C[C@@H]1O` [Compound I-35, {(1R,2S,4R)-4-[(5-{[1-(2,5-difluorobenzyl)-1H-pyrazol-3-yl]carbonyl}pyrimidin-4-yl)amino]-2-hydroxycyclopentyl}methyl sulfamate], the IC50 is less than 10 nM and the inhibition at 0.111 µM stood at 95%.
